Source: US8618095B2 (Rigel Pharmaceuticals, Inc., priority 2010, dated 2013)
Where a name gives a salt, the structure may show the parent alone.

Each molecule was assayed on Human mast cells (CHMC) (assay: LD Tryptase release assay in CHMC (mast cell activation induced by FcγR cross-linking)). Settings: Homo sapiens, Mast cell, anti-IgG stimulation, activity of tryptase released upon degranulation.
Format: cell-based
Outline: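 Mast cells derived from CD38-negative progenitors were preincubated 1 h at 37 °C with compound in HEPES-buffered saline (pH 7.4, 0.1% BSA, compound diluted in buffer with 2% MeOH/1% DMSO). Cells were then stimulated 60 min with anti-human IgG (final 1 μg/mL). Released tryptase was measured on Z-Ala-Lys-Arg-AMC (30 min, room temperature, 355/460 nm) to give the IC50.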

Row | Compound | IC50 [nM]
1 | CC1(C)Oc2ccc(Nc3nc(Nc4ccc(N5CC[C@@H](O)C5)nc4)ncc3F)nc2NC1=O [Compound 64, N4-(2,2-dimethyl-3,4-dihydro-3-oxo-2H-pyrido[3,2-b][1,4]oxazin-6-yl)-5-fluoro-N2-[6-((3R)-3-hydroxypyrrolidin-1-yl)pyridin-3-yl]-2,4-pyrimidinediamine] | 100 to 500
2 | CCOC1CCN(c2ccc(Nc3ncc(F)c(Nc4ccc5c(n4)NC(=O)C(C)(C)O5)n3)cn2)CC1 [Compound 54, N4-(2,2-dimethyl-3,4-dihydro-3-oxo-2H-pyrido[3,2-b][1,4]oxazin-6-yl)-5-fluoro-N2-[6-(4-ethoxypiperidin-1-yl)pyridin-3-yl]-2,4-pyrimidinediamine] | 1000 to 100000
3 | CC1(C)Oc2ccc(Nc3nc(Nc4ccc(N5CCC(N6CCOCC6)C5)nc4)ncc3F)nc2NC1=O (stereo not shown) [Compound 67, N4-(2,2-dimethyl-3,4-dihydro-3-oxo-2H-pyrido[3,2-b][1,4]oxazin-6-yl)-5-fluoro-N2-[6-(3-morpholinopyrrolidin-1-yl)pyridin-3-yl]-2,4-pyrimidinediamine] | 100 to 500
4 | CCOCC1CN(c2ccc(Nc3ncc(F)c(Nc4ccc5c(n4)NC(=O)C(C)(C)O5)n3)cc2)CCO1 (stereo in doubt) [Compound 42, N4-(2,2-dimethyl-3,4-dihydro-3-oxo-2H-pyrido[3,2-b][1,4]oxazin-6-yl)-5-fluoro-N2-[4-(((2S)-2-ethoxymethyl)morpholino)phenyl]-2,4-pyrimidinediamine] | 100 to 500
5 | O=C1COc2ccc(Nc3nc(Nc4ccc(N5C[C@@H]6C[C@H]5CO6)cc4)ncc3F)nc2N1 [Compound 37, N4-(3,4-dihydro-3-oxo-2H-pyrido[3,2-b][1,4]oxazin-6-yl)-5-fluoro-N2-[4-((1S,4S)-5-oxa-2-aza-bicyclo[2.2.1]heptan-2-yl)phenyl]-2,4-pyrimidinediamine] | 100 to 500
6 | CC1(C)Oc2ccc(Nc3nc(Nc4ccc(N5CCOCC5)cc4)ncc3F)nc2NC1=O [Compound 1, N4-(2,2-dimethyl-3,4-dihydro-3-oxo-2H-pyrido[3,2-b][1,4]oxazin-6-yl)-5-fluoro-N2-(4-morpholinophenyl)-2,4-pyrimidinediamine] | < 100
7 | CC1(C)Oc2ccc(Nc3nc(Nc4ccc(N5CCC(N6CCOCC6)CC5)nc4)ncc3F)nc2NC1=O [Compound 60, N4-(2,2-dimethyl-3,4-dihydro-3-oxo-2H-pyrido[3,2-b][1,4]oxazin-6-yl)-5-fluoro-N2-[6-(4-morpholinopiperidin-1-yl)pyridin-3-yl]-2,4-pyrimidinediamine] | 100 to 500
8 | Cc1cc(Nc2ncc(F)c(Nc3ccc4c(n3)NC(=O)C(C)(C)O4)n2)cnc1N1CCOC(C)(C)C1 [Compound 14, N4-(2,2-dimethyl-3,4-dihydro-3-oxo-2H-pyrido[3,2-b][1,4]oxazin-6-yl)-5-fluoro-N2-[5-methyl-6-(2,2-dimethylmorpholino)pyridin-3-yl]-2,4-pyrimidinediamine] | 500 to 1000
9 | O=C1COc2ccc(Nc3nc(Nc4ccc(N5CCCOCC5)cc4)ncc3F)nc2N1 [Compound 44, N4-(3,4-dihydro-3-oxo-2H-pyrido[3,2-b][1,4]oxazin-6-yl)-5-fluoro-N2-[4-homomorpholinophenyl]-2,4-pyrimidinediamine] | 100 to 500
10 | Cc1cc(Nc2ncc(F)c(Nc3ccc4c(n3)NC(=O)C(C)(C)O4)n2)cnc1N1CCOCC1 [Compound 13, N4-(2,2-dimethyl-3,4-dihydro-3-oxo-2H-pyrido[3,2-b][1,4]oxazin-6-yl)-5-fluoro-N2-[5-methyl-6-morpholinopyridin-3-yl]-2,4-pyrimidinediamine] | < 100
11 | O=C1COc2ccc(Nc3nc(Nc4cnc(N5CCOCC5)c(F)c4)ncc3F)nc2N1 [Compound 16, N4-(3,4-dihydro-3-oxo-2H-pyrido[3,2-b][1,4]oxazin-6-yl)-5-fluoro-N2-[5-fluoro-6-morpholinopyridin-3-yl]-2,4-pyrimidinediamine] | 100 to 500
12 | CC1(C)Oc2ccc(Nc3nc(Nc4cnc(N5CCOCC5)c(F)c4)ncc3F)nc2NC1=O [Compound 10, N4-(2,2-dimethyl-3,4-dihydro-3-oxo-2H-pyrido[3,2-b][1,4]oxazin-6-yl)-5-fluoro-N2-[5-fluoro-6-morpholinopyridin-3-yl]-2,4-pyrimidinediamine] | 100 to 500
13 | CC1(C)Oc2ccc(Nc3nc(Nc4ccc(N5CCC(O)CC5)nc4)ncc3F)nc2NC1=O [Compound 52, N4-(2,2-dimethyl-3,4-dihydro-3-oxo-2H-pyrido[3,2-b][1,4]oxazin-6-yl)-5-fluoro-N2-[6-(4-hydroxypiperidin-1-yl)pyridin-3-yl]-2,4-pyrimidinediamine] | < 100
14 | CCOCC1COCCN1c1ccc(Nc2ncc(F)c(Nc3ccc4c(n3)NC(=O)C(C)(C)O4)n2)cn1 (stereo not shown) [Compound 59, N4-(2,2-dimethyl-3,4-dihydro-3-oxo-2H-pyrido[3,2-b][1,4]oxazin-6-yl)-5-fluoro-N2-[6-(3-(ethoxymethyl)morpholino)pyridin-3-yl]-2,4-pyrimidinediamine] | 100 to 500

Further lines, results first:

Row | IC50 [nM] | Compound
15 | < 100 | CC1(C)Oc2ccc(Nc3nc(Nc4ccc(N5CCS(=O)(=O)CC5)cc4)ncc3F)nc2NC1=O [Compound 149, N4-(2,2-dimethyl-3,4-dihydro-3-oxo-2H-pyrido[3,2-b][1,4]oxazin-6-yl)-5-fluoro-N2-[4-(1,1-dioxidothiomorpholin-4-yl)phenyl]-2,4-pyrimidinediamine]
16 | 500 to 1000 | CC1(C)Oc2ccc(Nc3nc(Nc4ccc(N5CCC(C(N)=O)C5)nc4)ncc3F)nc2NC1=O (stereo not shown) [Compound 70, N4-(2,2-dimethyl-3,4-dihydro-3-oxo-2H-pyrido[3,2-b][1,4]oxazin-6-yl)-5-fluoro-N2-[6-(3-(aminocarbonyl)pyrrolidin-1-yl)pyridin-3-yl]-2,4-pyrimidinediamine]
17 | 100 to 500 | C[C@H]1COCCN1c1ccc(Nc2ncc(F)c(Nc3ccc4c(n3)NC(=O)C(C)(C)O4)n2)cc1 [Compound 120, N4-(2,2-dimethyl-3,4-dihydro-3-oxo-2H-pyrido[3,2-b][1,4]oxazin-6-yl)-5-fluoro-N2-[4-((3S)-3-methylmorpholino)phenyl]-2,4-pyrimidinediamine]
18 | 100 to 500 | O=C1Nc2nc(Nc3nc(Nc4ccc(N5CCOCC5)cc4)ncc3F)ccc2OC12CCC2 [Compound 123, 5-Fluoro-N2-(4-morpholinophenyl)-N4-(3′-oxo-3′,4′-dihydrospiro[cyclobutane-1,2′-pyrido[3,2-b][1,4]oxazine]-6-yl)-2,4-pyrimidinediamine]
19 | 100 to 500 | CCOC[C@H]1CN(c2ccc(Nc3ncc(F)c(Nc4ccc5c(n4)NC(=O)C(C)(C)O5)n3)cn2)CCO1 [Compound 103, N4-(2,2-dimethyl-3,4-dihydro-3-oxo-2H-pyrido[3,2-b][1,4]oxazin-6-yl)-N2-[6-(((2R)-2-ethoxymethyl)morpholino)pyridin-3-yl]-5-fluoro-2,4-pyrimidinediamine]
20 | 100 to 500 | CC1(C)Oc2ccc(Nc3nc(Nc4ccc(N5CCO[C@H](CCO)C5)cc4)ncc3F)nc2NC1=O (stereo in doubt) [Compound 126, N4-(2,2-dimethyl-3,4-dihydro-3-oxo-2H-pyrido[3,2-b][1,4]oxazin-6-yl)-5-fluoro-N2-[4-((2-hydroxyethyl)morpholino)phenyl]-2,4-pyrimidinediamine]
21 | 100 to 500 | CC1(C)Oc2ccc(Nc3nc(Nc4ccc(N5CCC6(CCOC6)CC5)nc4)ncc3F)nc2NC1=O [Compound 144, N4-(2,2-dimethyl-3,4-dihydro-3-oxo-2H-pyrido[3,2-b][1,4]oxazin-6-yl)-5-fluoro-N2-[6-(2-oxa-8-azaspiro[4.5]decan-8-yl)pyridin-3-yl]-2,4-pyrimidinediamine]
22 | 1000 to 100000 | CC(C)OC1CCN(c2ccc(Nc3ncc(F)c(Nc4ccc5c(n4)NC(=O)C(C)(C)O5)n3)cc2)CC1 [Compound 86, N4-(2,2-dimethyl-3,4-dihydro-3-oxo-2H-pyrido[3,2-b][1,4]oxazin-6-yl)-5-fluoro-N2-[4-(4-isopropoxypiperidin-1-yl)phenyl]-2,4-pyrimidinediamine]
23 | < 100 | C[C@H]1COCCN1c1ccc(Nc2ncc(F)c(Nc3ccc4c(n3)NC(=O)CO4)n2)cc1 [Compound 119, N4-(3,4-dihydro-3-oxo-2H-pyrido[3,2-b][1,4]oxazin-6-yl)-5-fluoro-N2-[4-((3S)-3-methylmorpholino)phenyl]-2,4-pyrimidinediamine]
24 | 100 to 500 | CCN[C@@H]1CCN(c2ccc(Nc3ncc(F)c(Nc4ccc5c(n4)NC(=O)C(C)(C)O5)n3)cn2)C1 [Compound 68, N4-(2,2-dimethyl-3,4-dihydro-3-oxo-2H-pyrido[3,2-b][1,4]oxazin-6-yl)-5-fluoro-N2-[6-((3R)-3-(ethylamino)pyyriolidin-1-yl)pyridin-3-yl]-2,4-pyrimidinediamine]
25 | 100 to 500 | COCCN(C)c1ccc(Nc2ncc(F)c(Nc3ccc4c(n3)NC(=O)C(C)(C)O4)n2)cn1 [Compound 99]
26 | < 100 | CC1(C)CN(c2ccc(Nc3ncc(F)c(Nc4ccc5c(n4)NC(=O)C(C)(C)O5)n3)cc2)CCO1 [Compound 116, N4-(2,2-dimethyl-3,4-dihydro-3-oxo-2H-pyrido[3,2-b][1,4]oxazin-6-yl)-N2-[4-(2,2-dimethylmorpholino)phenyl]-5-fluoro-2,4-pyrimidinediamine]
27 | 100 to 500 | CC1(C)Oc2ccc(Nc3nc(Nc4ccc(N5CCC(C(N)=O)CC5)cc4)ncc3F)nc2NC1=O [Compound 150, N4-(2,2-dimethyl-3,4-dihydro-3-oxo-2H-pyrido[3,2-b][1,4]oxazin-6-yl)-5-fluoro-N2-[4-(4-(aminocarbonyl)piperidin-1-yl)phenyl]-2,4-pyrimidinediamine]

Same assay, conditions: anti-IgG stimulation, activity of tryptase released upon degranulation

Row | IC50 [nM] | Compound
28 | 100 to 500 | CC1(C)Oc2ccc(Nc3nc(Nc4ccc(N5CCOCC5)nc4)ncc3F)nc2NC1=O [Compound 141, N4-(2,2-dimethyl-3,4-dihydro-3-oxo-2H-pyrido[3,2-b][1,4]oxazin-6-yl)-5-fluoro-N2-[6-morpholinopyridin-3-yl]-2,4-pyrimidinediamine benzenesulfonic acid salt]
